Test results reported in patent publication US8431593B2, “Heteroaryl amide derivatives” (H. Lundbeck A/S, priority 2006, dated 2013).

target: T1, P2X7 receptor (Homo sapiens, UniProt Q99572); assay: P2X7 calcium mobilization assay, high throughput, antagonist activity (Example 4A); type: cell-based; conditions: 50% decrease in the fluorescence response of cells exposed to 80 μM of 2′(3′)-O-(4-benzoyl-benzoyl)adenosine 5′-triphosphate; determined as in Example 4A; read-out: IC50
T1 construct: host or cells: SH-SY5Y
T1 sequence (Q99572 1-595): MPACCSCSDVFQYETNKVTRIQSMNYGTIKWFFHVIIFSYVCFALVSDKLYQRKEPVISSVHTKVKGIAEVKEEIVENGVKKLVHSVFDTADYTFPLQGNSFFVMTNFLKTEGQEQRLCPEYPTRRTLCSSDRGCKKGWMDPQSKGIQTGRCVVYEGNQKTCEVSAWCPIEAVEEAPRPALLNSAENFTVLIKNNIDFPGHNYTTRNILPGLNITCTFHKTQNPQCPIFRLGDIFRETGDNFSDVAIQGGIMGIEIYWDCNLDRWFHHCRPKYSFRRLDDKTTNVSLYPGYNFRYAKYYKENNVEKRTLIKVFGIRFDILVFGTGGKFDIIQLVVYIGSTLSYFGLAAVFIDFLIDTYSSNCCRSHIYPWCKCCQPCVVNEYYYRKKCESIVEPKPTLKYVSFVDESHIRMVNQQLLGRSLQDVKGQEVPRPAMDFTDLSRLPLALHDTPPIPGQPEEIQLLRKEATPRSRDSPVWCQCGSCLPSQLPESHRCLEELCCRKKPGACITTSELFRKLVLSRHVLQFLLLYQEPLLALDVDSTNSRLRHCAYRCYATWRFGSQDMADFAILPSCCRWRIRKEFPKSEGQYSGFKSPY
In short: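 Antagonism was measured as calcium fluorescence (FLIPR Tetra) in cells seeded one day earlier at 100,000/well, loaded with dye for 1 h and exposed to compound for 1 h at room temperature before agonist. Peak RFU, minus the no-agonist background, was referenced to the mean of the agonist wells.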

| Structure (SMILES) | IC50 [nM] |
| --- | --- |
| COC1CCN(C(=O)Cc2cn3c(C(=O)NCC4(c5cccnc5)CCCCC4)cccc3n2)CC1 [Compound 897, 2-[2-(4-methoxypiperidin-1-yl)-2-oxoethyl]-N-[(1-pyridin-3-ylcyclohexyl)methyl] imidazo[1,2-a] pyridine-5-carboxamide] | < 2000 |
| COC1CCN(C(=O)Cc2cn3c(C(=O)NCC4(c5ccc(Cl)cc5)CCCCC4)cccc3n2)CC1 [Compound 898, N-{[1-(4-chlorophenyl)cyclohexyl]methyl}-2-[2-(4-methoxypiperidin-1-yl)-2-oxoethyl] imidazo[1,2-a] pyridine-5-carboxamide] | < 2000 |
| CN(C)C1CCCN(C(=O)Cc2cn3c(C(=O)NCC4(c5ccc(Cl)cc5)CCOCC4)cccc3n2)C1 (centres unmarked) [Compound 899, N-{[4-(4-chlorophenyl)tetrahydro-2H-pyran-4-yl]methyl}-2-{2-[3-(dimethylamino)piperidin-1-yl]-2-oxoethyl} imidazo[1,2-a] pyridine-5-carboxamide] | < 2000 |
| O=C(O)CCc1cn2c(C(=O)NCC3(c4ccc(Cl)cc4)CCCCC3)cccc2n1 [Compound 900, 3-[5-({[1-(4-chlorophenyl)cyclohexyl]methyl}carbamoyl)imidazo[1,2-a]pyridin-2-yl] propanoic acid] | < 2000 |
| CCOC(=O)Cc1nnn(Cc2cn3c(C(=O)NCC45CC6CC(CC(C6)C4)C5)cccc3n2)n1 [Compound 901, ethyl [2-({5-[(adamantan-1-ylmethyl)carbamoyl]imidazo[1,2-a]pyridin-2-yl}methyl)-2H-tetrazol-5-yl]acetate] | < 2000 |
| CCOC(=O)Cc1nnnn1Cc1cn2c(C(=O)NCC34CC5CC(CC(C5)C3)C4)cccc2n1 [Compound 902, ethyl [1-({5-[(adamantan-1-ylmethyl)carbamoyl]imidazo[1,2-a]pyridin-2-yl}methyl)-1H-tetrazol-5-yl]acetate] | < 2000 |
| O=C(O)Cc1nnn(Cc2cn3c(C(=O)NCC45CC6CC(CC(C6)C4)C5)cccc3n2)n1 [Compound 903, [2-({5-[(adamantan-1-ylmethyl)carbamoyl]imidazo[1,2-a]pyridin-2-yl}methyl)-2H-tetrazol-5-yl]acetic acid] | < 2000 |
| O=C(O)Cc1nnnn1Cc1cn2c(C(=O)NCC34CC5CC(CC(C5)C3)C4)cccc2n1 [Compound 904, [1-({5-[(adamantan-1-ylmethyl)carbamoyl]imidazo[1,2-a]pyridin-2-yl}methyl)-1H-tetrazol-5-yl]acetic acid] | < 2000 |
| CCCC(C(=O)OCC)c1cn2c(C(=O)NCC34CC5CC(CC(C5)C3)C4)cccc2n1 (centres unmarked) [Compound 905, ethyl 2-{5-[(adamantan-1-ylmethyl)carbamoyl]imidazo[1,2-a]pyridin-2-yl}pentanoate] | < 2000 |
| CCCCC(C(=O)OCC)c1cn2c(C(=O)NCC34CC5CC(CC(C5)C3)C4)cccc2n1 (centres unmarked) [Compound 906, ethyl 2-{5-[(adamantan-1-ylmethyl)carbamoyl]imidazo[1,2-a]pyridin-2-yl} hexanoate] | < 2000 |
| CCOC(=O)C(CCC(C)C)c1cn2c(C(=O)NCC34CC5CC(CC(C5)C3)C4)cccc2n1 (centres unmarked) [Compound 907, ethyl 2-{5-[(adamantan-1-ylmethyl)carbamoyl]imidazo[1,2-a]pyridin-2-yl}-5-methylhexanoate] | < 2000 |
| CCCCC(C(=O)O)c1cn2c(C(=O)NCC34CC5CC(CC(C5)C3)C4)cccc2n1 (centres unmarked) [Compound 908, 2-{5-[(adamantan-1-ylmethyl)carbamoyl]imidazo[1,2-a]pyridin-2-yl} hexanoic acid] | < 2000 |
| CCCC(C(=O)O)c1cn2c(C(=O)NCC34CC5CC(CC(C5)C3)C4)cccc2n1 (centres unmarked) [Compound 909, 2-{5-[(adamantan-1-ylmethyl)carbamoyl]imidazo[1,2-a]pyridin-2-yl}pentanoic acid] | < 2000 |
| N[C@@H]1CCN(Cc2cn3c(C(=O)NCC4(c5ccc(Cl)cc5)CCOCC4)cccc3n2)C1 [Compound 910, 2-{[(3R)-3-aminopyrrolidin-1-yl]methyl}-N-{[4-(4-chlorophenyl)tetrahydro-2H-pyran-4-yl]methyl} imidazo[1,2-a] pyridine-5-carboxamide] | < 2000 |
